We go through eight compounds from patent publication US20210070687A1, “MOLECULAR WEIGHT CONTROLLING AGENT FOR RADICAL POLYMERIZATION, METHOD FOR PRODUCING POLYMER USING SAME, AND POLYMER” (SDP Global Co., Ltd., priority 2017, published 2021).

Structures are written as SMILES.

This series in a line: Solubility in water at 20° C. of the iodine compounds. As to conditions: % means % by weight.
Turning to `CC(C)(I)C(=O)O` [Example 1, 2-Iodo-2-methylpropionic acid], the “Solubility in water (20° C.)” value is on record as 1.9%.

As for `CC(I)C(N)=O` (centres unmarked) [Example 2, 2-Iodopropionamide], the “Solubility in water (20° C.)” value was 1.2%.

As for `CC(C)(I)C(=O)OCCO` [Example 3, 2-Hydroxyethyl 2-iodo-2-methylpropionate], the “Solubility in water (20° C.)” value came to 3.2%.

On to `CC(C)(I)C(=O)[O-].[Na+]` [Example 5, Sodium 2-iodo-2-methylpropionate], for which the “Solubility in water (20° C.)” value is given as greater than 10%.

Consider `O=C([O-])C(I)c1ccccc1.[Na+]` (centres unmarked) [Example 6, Sodium 2-iodo-2-phenylacetate], for which the “Solubility in water (20° C.)” value was greater than 10%.

Take `O=C(O)C(I)c1ccccc1` (centres unmarked) [Reference Example 1, 2-Iodo-2-phenylacetic acid, reference compound]: the “Solubility in water (20° C.)” value worked out at 0.1%.

In the case of `CCOC(=O)C(C)I` (centres unmarked) [Reference Example 4, Ethyl 2-iodopropionate, reference compound], the “Solubility in water (20° C.)” value is given as 0.2%.

`CCOC(=O)C(C)(C)I` [Reference Example 5, Ethyl 2-iodo-2-methylpropionate, reference compound]: the “Solubility in water (20° C.)” value is less than 0.1%.
